Values quoted from earlier work in patent US20260000671A1, “CONCENTRATED SOLUTIONS COMPRISING 5,10-METHYLENE-(6R)-TETRAHYDROFOLIC ACID” (Merck Patent GMBH, priority 2022, published 2026).

purity 24 hours following dissolution in water (24 hours following dissolution in water, % normalized purity): 44.9 % of the starting purity | stability profile in words (following dissolution in water, FIG. 1): degraded rapidly over time | purity after 7 hours (re-constituted lyophilizate, after 7 hours): 84% | purity loss per hour (degradation rate, slope of best-fit line) (re-constituted lyophilizate, linear regression of stability profile): 2.3 % purity per hour
SMILES: Nc1nc2c(c(=O)[nH]1)N1CN(c3ccc(C(=O)N[C@@H](CCC(=O)O)C(=O)O)cc3)C[C@H]1CN2 [5,10-methylene-(6R,S)-tetrahydrofolic acid]
